Numbering of substitutions follows the chain as printed.
Legend:
PPO2 R128T ΔG210 = biological target: T1, PPO2 R128T ΔG210 (Amaranthus tuberculatus, UniProt Q0NZW9, DEL210-210/R128T); assay type: biochemical
T1 sequence (Q0NZW9 with tags, fused parts or gaps R128T/DEL210-210): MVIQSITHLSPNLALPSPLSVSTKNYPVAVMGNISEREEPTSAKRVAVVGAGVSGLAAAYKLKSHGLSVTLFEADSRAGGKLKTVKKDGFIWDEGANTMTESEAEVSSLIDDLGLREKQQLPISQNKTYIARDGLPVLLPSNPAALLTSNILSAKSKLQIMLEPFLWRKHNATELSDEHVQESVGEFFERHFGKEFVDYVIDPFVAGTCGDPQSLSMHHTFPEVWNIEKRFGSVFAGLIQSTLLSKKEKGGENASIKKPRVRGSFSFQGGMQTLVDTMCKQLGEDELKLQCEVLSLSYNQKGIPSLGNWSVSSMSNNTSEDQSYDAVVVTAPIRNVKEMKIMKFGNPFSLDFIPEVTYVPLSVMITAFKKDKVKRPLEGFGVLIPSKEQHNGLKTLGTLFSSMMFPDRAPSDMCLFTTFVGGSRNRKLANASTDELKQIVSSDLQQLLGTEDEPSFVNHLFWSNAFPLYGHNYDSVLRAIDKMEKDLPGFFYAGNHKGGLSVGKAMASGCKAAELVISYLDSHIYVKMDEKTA

PPO2 R128M ΔG210 = biological target: T2, PPO2 R128M ΔG210 (Amaranthus tuberculatus, UniProt Q0NZW9, DEL210-210/R128M); assay: biochemical; assay type: biochemical
T2 sequence (Q0NZW9 with tags, fused parts or gaps R128M/DEL210-210): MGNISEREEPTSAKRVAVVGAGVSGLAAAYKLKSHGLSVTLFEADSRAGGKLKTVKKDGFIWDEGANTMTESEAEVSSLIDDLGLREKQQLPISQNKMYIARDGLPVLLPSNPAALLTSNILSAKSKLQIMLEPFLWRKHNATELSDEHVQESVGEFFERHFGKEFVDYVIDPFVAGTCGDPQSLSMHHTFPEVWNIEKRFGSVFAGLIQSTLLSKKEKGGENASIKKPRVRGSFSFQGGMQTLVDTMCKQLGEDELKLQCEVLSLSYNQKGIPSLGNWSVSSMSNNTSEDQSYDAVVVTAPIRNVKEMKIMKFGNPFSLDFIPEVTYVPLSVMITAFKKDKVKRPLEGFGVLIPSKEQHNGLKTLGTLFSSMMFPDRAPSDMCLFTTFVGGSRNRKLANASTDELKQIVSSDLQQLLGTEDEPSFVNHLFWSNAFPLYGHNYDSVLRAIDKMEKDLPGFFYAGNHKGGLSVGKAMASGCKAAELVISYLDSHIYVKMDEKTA

[1] = biological target: T3, PPO2 R128E ΔG210 in Escherichia coli hemG (Amaranthus tuberculatus, UniProt Q0NZW9, DEL210/R128E, cells depend on it); assay type: cell-based; conditions: read-out: IC50 (E. coli hemG growth)
T3 sequence (Q0NZW9 with tags, fused parts or gaps R128E/DEL210): T2 sequence (Q0NZW9 with tags, fused parts or gaps R128M/DEL210-210) with M98E

[2] = biological target: T4, PPO2 R128Q ΔG210 in Escherichia coli hemG (Amaranthus tuberculatus, UniProt Q0NZW9, DEL210-210/R128Q, cells depend on it); assay type: cell-based; conditions: read-out: IC50 (E. coli hemG growth)
T4 sequence (Q0NZW9 with tags, fused parts or gaps R128Q/DEL210-210): T1 sequence (Q0NZW9 with tags, fused parts or gaps R128T/DEL210-210) with T128Q

[3] = biological target: T5, PPO2 R128N ΔG210 in Escherichia coli hemG (Amaranthus tuberculatus, UniProt Q0NZW9, DEL210-210/R128N, cells depend on it); assay type: cell-based; conditions: read-out: IC50 (E. coli hemG growth)
T5 sequence (Q0NZW9 with tags, fused parts or gaps R128N/DEL210-210): T2 sequence (Q0NZW9 with tags, fused parts or gaps R128M/DEL210-210) with M98N

Work on CS(=O)(=O)NC(=O)c1cc(Oc2ccc(C(F)(F)F)cc2Cl)ccc1[N+](=O)[O-] [Fomesafen, fomesafen] yielded an IC50 (PPO2 R128T ΔG210) of over 10 µM and an IC50 (PPO2 R128M ΔG210) of over 10 µM.
CCOC(=O)C(C)OC(=O)c1cc(Oc2ccc(C(F)(F)F)cc2Cl)ccc1[N+](=O)[O-] (stereo not shown) [Lactofen, lactofen] was tested, and the IC50 [1] was 2.89 µM, the IC50 (PPO2 R128T ΔG210) was 3.92 µM and the IC50 [2] was over 10 µM. For the same molecule, the IC50 [3] was over 10 µM and the IC50 (PPO2 R128M ΔG210) was over 10 µM.
Work on CC(C)N(C)S(=O)(=O)NC(=O)c1cc(-n2c(=O)cc(C(F)(F)F)n(C)c2=O)c(F)cc1Cl [Saflufenacil, saflufenacil] yielded an IC50 [1] of over 10 µM, an IC50 (PPO2 R128T ΔG210) of over 10 µM and an IC50 [2] of over 10 µM. The IC50 [3] was over 10 µM and the IC50 (PPO2 R128M ΔG210) was over 10 µM.
With C#CCN1C(=O)C(F)(F)Oc2cc(F)c(-n3c(=O)n(C)c(=S)n(C)c3=O)cc21 [Trifludimoxazin, trifludimoxazin] the IC50 [1] was 0.00987 µM, the IC50 (PPO2 R128T ΔG210) was 0.0748 µM and the Resistance factor (PPO2 R128T ΔG210) was 305. The IC50 [2] was 0.00986 µM, the IC50 [3] was 0.00987 µM and the IC50 (PPO2 R128M ΔG210) was 0.182 µM. For the same molecule, the Resistance factor (PPO2 R128M ΔG210) was 743.

— paper PMC10092844, “Inhibition profile of trifludimoxazin towards PPO2 target site mutations” (Pest Management Science, 2022)
